Conditions: Liquid; for vapor or sublimation pressure: Closed cell (Static) method; for Critical pressure: Direct measurement; for Critical temperature: Visual observation in an unstirred cell

C=CCCC [1-pentene]
Conditions | Critical pressure [kPa] | Critical temperature [K] | vapor or sublimation pressure [kPa]
– | 3585 | 466.59 | –
297.86 K | – | – | 84
327.08 K | – | – | 216
336.14 K | – | – | 279
346.92 K | – | – | 372
356.19 K | – | – | 468
356.89 K | – | – | 474
366.77 K | – | – | 600
377.34 K | – | – | 757
387.42 K | – | – | 933
394.67 K | – | – | 1085
399.61 K | – | – | 1193
403.03 K | – | – | 1269
411.19 K | – | – | 1472
420.96 K | – | – | 1752
426.1 K | – | – | 1915
436.17 K | – | – | 2255
439.5 K | – | – | 2373
445.74 K | – | – | 2622
452.59 K | – | – | 2902
456.52 K | – | – | 3081
457.93 K | – | – | 3152
460.95 K | – | – | 3294
462.87 K | – | – | 3389
463.77 K | – | – | 3443
466.59 K | – | – | 3585

C=C(C)CC [2-methyl-1-butene]
Conditions | Critical pressure [kPa] | Critical temperature [K] | vapor or sublimation pressure [kPa]
– | 3652 | 467.9 | –
299.27 K | – | – | 85
323.65 K | – | – | 190
341.18 K | – | – | 312
353.77 K | – | – | 431
366.06 K | – | – | 579
368.18 K | – | – | 608
375.63 K | – | – | 717
386.21 K | – | – | 898
398.5 K | – | – | 1149
409.28 K | – | – | 1402
419.65 K | – | – | 1695
429.02 K | – | – | 1985
431.24 K | – | – | 2065
438.39 K | – | – | 2316
448.46 K | – | – | 2723
457.43 K | – | – | 3118
460.55 K | – | – | 3271
463.37 K | – | – | 3409
465.49 K | – | – | 3523
467.9 K | – | – | 3652

CC=C(C)C [2-methyl-2-butene]
Conditions | Critical pressure [kPa] | Critical temperature [K] | vapor or sublimation pressure [kPa]
– | 3686 | 477.47 | –
307.63 K | – | – | 87
325.06 K | – | – | 157
340.98 K | – | – | 249
350.14 K | – | – | 321
364.85 K | – | – | 463
372.91 K | – | – | 560
380.97 K | – | – | 673
389.83 K | – | – | 811
397.89 K | – | – | 954
408.17 K | – | – | 1167
422.67 K | – | – | 1524
430.83 K | – | – | 1758
439.09 K | – | – | 2021
448.36 K | – | – | 2349
453.3 K | – | – | 2541
454.71 K | – | – | 2600
461.46 K | – | – | 2884
464.08 K | – | – | 3006
470.72 K | – | – | 3327
471.73 K | – | – | 3377
473.04 K | – | – | 3442
475.16 K | – | – | 3556
477.47 K | – | – | 3686

C=CC(C)C [3-methyl-1-butene]
Conditions | Critical pressure [kPa] | Critical temperature [K] | vapor or sublimation pressure [kPa]
– | 3463 | 451.38 | –
302.9 K | – | – | 140
323.75 K | – | – | 264
336.44 K | – | – | 374
350.65 K | – | – | 533
358.2 K | – | – | 635
371.6 K | – | – | 855
382.88 K | – | – | 1073
390.84 K | – | – | 1255
399 K | – | – | 1458
405.25 K | – | – | 1632
413.2 K | – | – | 1874
420.56 K | – | – | 2113
431.03 K | – | – | 2509
439.9 K | – | – | 2885
445.14 K | – | – | 3138
447.76 K | – | – | 3260
450.48 K | – | – | 3407
451.38 K | – | – | 3463
